Consider one compound from US20240050389A1, “TREATMENT OF IDIOPATHIC PULMONARY FIBROSIS” (priority 2020, published 2024).

The test system of one data set is AMs from IPF patients. As to the kind of experiment: Culture of AMs from IPF patients with itaconate. The data set is classed as cell-based, human. As to conditions: AMs from IPF patients cultured with itaconate. From the text: (§1) Primary human lung fibroblasts were isolated from lung resections of patients undergoing lung cancer surgery or lung transplantation performed after informed consent as approved by an external Research Ethics Committee (REC 15/SC0101) according to the Royal Brompton Hospital protocol (Royal Brompton & Harefield NHS Foundation Trust, 2016) and cultured in complete Dulbecco's modified eagle medium (10% FBS, 100 U/ml penicillin/streptomycin) (Gibco, ThermoFisher) to passage four. Human bronchial epithelial cells (HBE) were obtained from bronchial brushings during the bronchoscopy after informed consent and approved by an external Research Ethics Committee for ILD subjects (Ref. Nos. 10/H0720/12 and 15/SC0101). HBEs were cultured in bronchia.1 e thelial growth (BEGM) medium (Lonza) to passage four. MACS enriched human AM were cultured in complete RPMI (10% FBS, 100U/ml penicillin/streptomycin, Gibco, ThermoFisher) for 24 hrs. Fibroblasts and AM were cultured with 10 mM itaconate in complete medium for 24hrs prior to cell lysis in RLT buffer (QIAGEN) containing 1% 2-Mercaptoethanol (Sigma Aldrich).
1×10^7 BAL cells were stained with anti-CD206 (Biolegend) and Human TruStain FcX block (Biolegend) for 15 minutes at 4° C. in 0.5% FBS/2 mM EDTA in PBS prior to incubation with MACS anti-Cy7 microbeads (Miltenyi Biotec) for 15 minutes at 4° C. […]

Data set [1] deals with primary human lung fibroblasts. Briefly: Seahorse mitochondrial stress test (OCR) of human lung fibroblasts cultured with itaconate. The note with it: IPF HLFs (increased vs healthy HLFs), 24 h incubation with itaconate. It is filed as cell-based.
Data set [2] deals with primary human lung fibroblasts. As to the kind of experiment: JULI-Stage wound healing (scratch) assay. It is filed as cell-based. As to conditions: healthy HLFs, 10 mM itaconate, over a 48 h period. As for the experimental part:
(§2) Primary human lung fibroblasts were seeded in 96-well plate for proliferation assay (5,000 per well) or 24-well plate for wound healing assay and serum-starved overnight prior to treatment with itaconate in complete DMEM for 48-72 hrs. For wound healing assays, a standardised scratch was applied in each well using a p10 pipette tip. Images were taken in JULI-Stage system (NanoEntek) at three to five positions per well every 30 minutes and proliferation rate or wound closure were calculated using JU LI-Stage software (NanoEntek).
(§3) Human lung fibroblasts were cultured in media alone or supplemented with itaconate and assessed after 24 h-72 h. […] To assess the ability of itaconate to limit fibrosis related functions of HLFs, proliferation and wound healing assays were carried out in the presence or absence of itaconate.

Data set [3] can be described thus: Tolerability of inhaled (oropharyngeal) itaconate in naïve mice. As to conditions: inhaled dose of 0.25 mg/kg. It is filed as in vivo. As to the method:
FIG. 18: Exogenous itaconate is anti-fibrotic. (A-C) Total BAL count, percentage of eosinophils (B) and Percentage of neutrophils (C) of PBS or itaconate dosed mice (0.25-10 mg/kg, oropharyngeal), 24 h post administration (n=4 per group). Data presented as mean±S.D.; Significance was tested by ordinary one-way ANOVA with Sidak's multiple comparison test, **P<0.01.
In order to address whether inhaled itaconate is anti-fibrotic, it was first determined a dose of itaconate that would not provoke an inflammatory response in murine airways. […] We administered inhaled (OPN) itaconate or PBS twice a week for two weeks during the fibrotic phase (starting at day 10 post bleomycin) to WT mice (FIG. 7A); this dosing strategy is in accordance with the American Thoracic guidelines for preclinical assessment of potential therapies for IPF (Jenkins et al., 2017). Subsequently pathology, fibrosis and lung function at d21 post bleomycin were assessed.

The subject of data set [4] is primary human lung fibroblasts. As to the kind of experiment: JULI-Stage proliferation assay. It is filed as cell-based. As to conditions: 10 mM itaconate, over 72 h. As to the method: as §2, §3
Data set [5] deals with bleomycin induced pulmonary fibrosis. As to the kind of experiment: Therapeutic inhaled itaconate in bleomycin mouse model. The data set is classed as in vivo. As to conditions: 0.25 mg/kg oropharyngeal twice a week for two weeks from day 10 post bleomycin, WT mice.
Procedure: Unless otherwise stated, all mice were between 8 and 12 weeks of age. Mice were housed in specific-pathogen-free conditions and given food and water ad libitum. All procedures were approved by the United Kingdom Home Office and conducted in strict accordance with the Animals (Scientific Procedures) Act 1986. […] All surgery was performed under ketamine and sodium pentobarbital anaesthesia and all efforts were made to minimize suffering. Mice were administered either 0.05U (1U/ml solution dissolved in PBS) of bleomycin sulphate (Sigma Aldrich) or 50 μl PBS via the oropharyngeal route at day 0 and culled after 7, 21 or 42 days. For therapeutic experiments mice were administered 0.25 mg/kg (1 mM solution dissolved in PBS, 50 μl) itaconic acid (Sigma Aldrich) or PBS via the oropharyngeal route twice a week, beginning 10 days after of bleomycin administration.
Lung function measurements were performed using the Flexivent system (Scireq, Montreal, Canada). After induction of anaesthesia with an i.p. injection of Pentobarbitone (50 mg/Kg, Sigma, UK) and i.m. injection of Ketamine (200 mg/Kg) (Fortdodge Animal Health Ltd, Southampton, UK), mice were tracheotomised and attached to the Flexivent ventilator via a blunt-ended 19-gauge needle. Mice were ventilated using the following settings; tidal volume of 7 ml/Kg body weight, 150 breaths/minute; positive end-expiratory pressure approximately 2 cm H2O. Standardisation of lung volume history was done by performing two deep inflations. Subsequently, measurements of dynamic resistance, dynamic elastance and dynamic compliance were determined using the snapshot-150 perturbation, a single frequency sinusoidal waveform. Resultant data was fitted using multiple linear regression to the single compartment model to determine the above parameters.
Paraffin-embedded sections (4 μm) of lungs (apical lobe) were stained with hematoxylin/eosin (H&E) and Sirius Red. For assessment of fibrosis, the semi-quantitative Ashcroft scoring system was used as previously described (Hubner et al., 2008, Biotechniques, 44(4): 507-11). All scoring and measurements were performed by 3-5 blinded independent observers.
Total RNA was reverse transcribed into cDNA using the High Capacity cDNA Reverse Transcription kit (Life Technologies), or GoScript reverse transcription system (Promega) for AMs, according to manufacturer's instructions. Real-time PCR was performed using fast-qPCR mastermix (Life technologies) on a Viia-7 instrument (Applied Biosciences) with Taqman primers for murine acod1, col-1α1, col3α1, col4α1, fn1, mmp2 or human acod1, cd163, fn1, IL-16, mmp1, mmp9 using actb (Life Technologies) as housekeeping gene.
Data set [6] relates to healthy human primary lung fibroblasts. Briefly: Real-time PCR gene expression in fibroblasts cultured with itaconate. The data set is classed as cell-based. As to conditions: healthy HLFs, 10 mM itaconate, 24 h.
Source text: as §1
In general terms: Quantitative PCR measures a nucleic acid by following its amplification.

As to `C=C(CC(=O)O)C(=O)O` [itaconate, 2-methylidenebutanedioic acid], the “pro-fibrotic and pro-inflammatory pathways” value in the data set on AMs from IPF patients is reported as “inhibits”. Also, in data set [1], the maximal respiration result was “ameliorated” and the spare respiratory capacity result is on record as “ameliorated”. Moreover, the “ability to close a standardized wound” value in data set [2] is listed as “decreased”. The “tolerability (no inflammatory response in murine airways)” value in data set [3] (repeated oropharyngeal administration, naïve mice (data not shown)) is reported as “well tolerated”. Also, in data set [3] (single oropharyngeal administration, naïve mice), the “tolerability (no inflammatory response in murine airways)” value is “well tolerated”. Moreover, the proliferative capacity result in data set [4] (HLFs from IPF patients) was “significantly reduced”. Besides, in data set [4] (HLFs from healthy donors), the proliferative capacity result was “significantly reduced”. Further, in data set [5] (d21), the “Ashcroft score based on Sirius red staining” value was “significantly ameliorated”, the “expression of Col4α1 (lung homogenate)” value was “significantly ameliorated” and the “expression of Fn1 (lung homogenate)” value was “significantly ameliorated”. Further, in data set [5] (d21, FlexiVent), the lung airway compliance entry is “significantly ameliorated” and the lung airway elastance result is listed as “significantly ameliorated”. Moreover, in data set [6], the “gene expression of FN-1” value was “downregulated” and the “gene expression of IL-1β” value is “downregulated”.
